The text below walks through data of publication PMC8133002, “Disruption of microtubule function in cultured human cells by a cytotoxic ruthenium(II) polypyridyl complex” (Chemical Science, 2019).

The subject of data set [1] is porcine brain tubulin. The data set can be described thus: Isothermal titration calorimetry, free (unpolymerized) tubulin at 4 °C. The class given is binding. The conditions noted are these: association constant, ITC. As for the experimental part:
(§1) ITC experiments were performed using a Microcal VP-ITC (Malvern) instrument. For polymerized porcine brain tubulin the calorimeter was set at 37 °C. For depolymerized porcine brain tubulin the calorimeter was set at 4 °C. Tubulin concentration was kept below 3 mg mL^−1 to ensure that minimal microtubule formation before any polymerization assays were performed in preparation for ITC experiments. Reverse titrations were used in all ITC experiments due to the low solubility of RPC2 in aqueous solutions. A typical ITC experiment involved fourteen 20 μL injections of tubulin (∼30 μM heterodimers, or 2 mg mL^−1) into a 1.45 mL cell of ligand solution. The ITC thermograms were corrected for titrate and titrant dilution effects by performing the appropriate blank experiments and correcting the observed heats by subtracting the heats of dilution. Corrected ITC titrations were fit with a nonlinear regression algorithm using CHASM, an ITC data analysis program developed in the Lewis laboratory to determine the thermodynamic parameters, including the association constant (K) and changes in free energy (ΔG), enthalpy (ΔH), and entropy (−TΔS).
Isothermal titration calorimetry (ITC) was used to measure the binding thermodynamics of RPC2 with tubulin and MTs. […]
In general terms: In ITC the heat of successive injections is recorded.

The subject of data set [2] is MTs. Also on record: method as in PMID 15057285, PMID 29523799. As to conditions: competitive binding titrations; cited from earlier work.
Data set [3] has as its target T1, preformed microtubules (polymerized porcine brain tubulin) (Sus scrofa, UniProt P02550+P02554).
T1 construct: For depolymerized porcine brain tubulin the calorimeter was set at 4 °C; purchased Cytoskeleton Inc., (Denver. CO); host or cells: porcine brain (tissue-purified)
The data set can be described thus: Isothermal titration calorimetry, preformed microtubules at 37 °C. The class given is binding. As to conditions: ITC. Here is the method:
as §1
Isothermal titration calorimetry (ITC) was used to measure the binding thermodynamics of RPC2 with tubulin and MTs. Reverse titrations (protein introduced into solutions with a fixed ligand concentration) were done as the poor solubility of RPC2 limited its concentration range. […] Experiments were either performed starting at 4 °C or 37 °C to obtain a population of tubulin in the free, unpolymerized state (4 °C) or polymerized state as MTs (37 °C), as these two structures present a different collection of binding sites to the ligand.

Data set [4] relates to H358. The data set can be described thus: Cytotoxicity IC50 against H358 cells. In kind it is cell-based. The conditions noted are these: Homo sapiens, NCI-H358.
Data set [5] deals with microtubules formed from porcine brain tubulin. The data set can be described thus: Electron microscopy of polymerized tubulin. The conditions noted are these: 10 μM. In kind it is biochemical. The text has this: Aliquots of polymerized tubulin were placed on 300-mesh carbon-coated, Formvar-treated copper grids and immediately stained with 5–10 successively applied drops of 1% (w/v) uranyl acetate. Excess stain was wicked from the grids with torn filter paper. The grids were examined in a Hitachi H-9500 High-resolution Transmission Electron Microscope.

Data set [6] has as its system MCF10. As to conditions: cited from earlier work.
For data set [7], the system named is MCF7. The data set can be described thus: Cytotoxicity IC50 against MCF7 cells. The class given is cell-based. The conditions noted are these: Homo sapiens.
Data set [8] concerns HUVEC. The conditions noted are these: cited from earlier work.
Data set [9] has as its system free tubulin in H358 cells. The data set can be described thus: Western blot of free tubulin in cytosol of H358 cells. As to conditions: PTX 0.1 μM or RPC2 1.7 μM, 12 h. The class given is cell-based, human. Here is the method: […] The confluent 60 mm dishes of cells were washed 3 times with 37 °C PBS, then lysed in microtubule stabilization buffer (Tris–HCl pH 6.8, 20 mM, NaCl 140 mM, MgCl2 1 mM, NP40 0.5%, EGTA 2 mM, 10 μM of Taxol) and protease inhibitors (100× Protease Inhibitor Cocktail (PIC) and 100× phenylmethane sulfonyl fluoride (PMSF)). Then, the cells were scraped, mixed and quickly transfer to microtubes. These samples were then spun at 10 000 rpm for 20 minutes, the supernatants containing free tubulin were collected and a bicinchoninic acid (BCA) protein assay was performed to check the protein quantity. Equal amounts of protein sample were prepared in Laemmli sample buffer and were boiled for 5 min at 95 °C. Proteins were resolved on a 12% polyacrylamide gel. The proteins were transferred to a nitrocellulose membrane for 1.5 h at 100 V. The nitrocellulose membrane was stained for 1 min with Ponceau Red to verify the efficiency of the transfer. Then, the membrane was blocked in 5% skim milk for 1 h at room temperature and incubated with primary alpha tubulin monoclonal antibody in 5% BSA overnight at 4 °C. The membrane was washed 3 times with TBST buffer before being probed with secondary antibodies conjugated to HRP, then the membrane was incubated for 1 h at room temperature before it was washed 3 times again with TBST buffer. […]
For orientation: A western blot detects proteins with antibodies after separation by electrophoresis.

Data set [10] has as its system H358. As to conditions: cited from earlier work.
Data set [11] concerns mouse fibroblast cells. Also on record: method as in PMID 6103535. As to conditions: PTX 0.25 μM, cited from earlier work.
The subject of data set [12] is MCF7 and MCF10a cells expressing GFP-EB3. The data set can be described thus: Spinning disk confocal imaging of GFP-EB3 comets in live cells. The class given is cell-based, human. The conditions noted are these: IC50 dose. Here is the method: MCF7 cells were cultured in phenol-red DMEM media (HyClone™, GE healthcare) supplemented with 10% FBS and penicillin/streptomycin at 37 °C in 5% CO2. MCF10A cells were cultured in low-calcium phenol-red DMEM/F12 (HyClone™, GE healthcare) supplemented with final concentration of 5% horse serum, 20 ng mL^−1 EGF, […] hydrocortisone, 100 ng mL^−1 Cholera toxin, 10 μg mL^−1 insulin, and 1% pen-strep. For live imaging, 500 000 cells per mL of both MCF7 and MCF10A cells were transfected with the cDNA (EGFP-EB3), and then cultured on 10 μg mL^−1 fibronectin coated 35 mm glass-bottom dishes (Cellvis, cat#: D35-20-1.5-N). Transfection of EGFP-EB3 was performed using a Lonza Nucleofector Device with Ingenio electroporation kit (Cat# MIR 50112, Mirus). Cells were treated with RPC2 18–24 hours post-transfection to allow time for cDNA expression. To minimize photobleaching, phenol-free DMEM was supplemented with 10% FBS and 25 mM HEPES, pH = 7.2 replaced the original media and was administered before RPC2 treatment. Time-lapse imaging was obtained before, 30 min, 1 h, 2 h, and 3 h after RPC2 treatment for both MCF7 and MCF10A. Images were obtained on a Zeiss Axiovert (Jena, Germany) microscope with a Zeiss alpha Plan-Fluar 100×, 1.45 NA oil objective and a spinning disk confocal scan head (Yokogawa CSU-X1, Tokyo, Japan). […]

Data set [13] relates to mouse fibroblast cells. Also on record: method as in PMID 20059301. As to conditions: mouse fibroblast cell line; cited from earlier work.
For data set [14] the following is noted: rats, intraperitoneal injection; cited from earlier work.
For data set [15] the following is noted: mice, intraperitoneal injection; cited from earlier work.
Data set [16] relates to MCF10 and MCF7 cells. Also on record: method as in PMID 28605571. The conditions noted are these: cited from earlier work.

Like-named read-outs stand apart in the source and are kept apart here.

The term IC50 denotes the midpoint of a concentration-inhibition curve.

T1 sequence (P02550 whole entry): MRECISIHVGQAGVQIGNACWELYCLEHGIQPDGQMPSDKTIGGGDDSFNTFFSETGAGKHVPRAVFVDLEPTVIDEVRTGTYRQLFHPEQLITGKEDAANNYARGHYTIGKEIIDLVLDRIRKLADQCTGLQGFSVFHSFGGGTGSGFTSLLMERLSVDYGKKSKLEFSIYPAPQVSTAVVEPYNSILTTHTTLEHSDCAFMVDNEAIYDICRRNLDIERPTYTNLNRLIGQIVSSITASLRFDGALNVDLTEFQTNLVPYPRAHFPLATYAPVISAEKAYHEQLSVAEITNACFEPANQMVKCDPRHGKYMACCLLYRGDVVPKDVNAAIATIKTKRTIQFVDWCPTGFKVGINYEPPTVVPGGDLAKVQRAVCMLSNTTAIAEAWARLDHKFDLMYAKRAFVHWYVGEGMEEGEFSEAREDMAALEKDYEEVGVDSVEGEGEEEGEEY
T1 sequence (P02554 whole entry): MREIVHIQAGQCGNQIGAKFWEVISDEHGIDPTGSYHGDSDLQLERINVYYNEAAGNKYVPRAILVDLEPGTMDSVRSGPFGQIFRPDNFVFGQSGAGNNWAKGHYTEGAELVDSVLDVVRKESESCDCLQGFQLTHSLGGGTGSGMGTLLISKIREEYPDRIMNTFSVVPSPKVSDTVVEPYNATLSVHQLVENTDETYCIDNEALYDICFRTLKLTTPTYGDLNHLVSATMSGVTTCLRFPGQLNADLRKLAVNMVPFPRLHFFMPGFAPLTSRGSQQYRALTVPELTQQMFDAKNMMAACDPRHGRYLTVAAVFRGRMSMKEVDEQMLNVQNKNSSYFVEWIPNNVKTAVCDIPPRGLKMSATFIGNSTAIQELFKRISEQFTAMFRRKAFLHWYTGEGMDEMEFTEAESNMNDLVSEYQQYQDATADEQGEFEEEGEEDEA

In [1], `CC(=O)O[C@@]12CO[C@@H]1C[C@H](O)[C@@]1(C)C(=O)[C@H](O)C3=C(C)[C@@H](OC(=O)[C@H](O)[C@@H](NC(=O)OC(C)(C)C)c4ccccc4)C[C@@](O)([C@@H](OC(=O)c4ccccc4)[C@H]21)C3(C)C` [DTX, docetaxel] returned a K of 8.1e+06 M⁻¹. In data set [2], the “association constant with MTs” value is 3.09e+07 M⁻¹. In data set [3] (MT, 37 °C), this compound returned a ΔG of -9.2 ± 0.9 kcal/mol and a ΔH of -33.4 ± 6.5 kcal/mol. For the same compound, in [3] (preformed MTs, read-out: associative binding constant K to preformed microtubules (converted)), the Kd is 182 nM. The compound further showed a K in [3] (association constant, MT, 37 °C) of 5.5e+06 M⁻¹.

Regarding `COC(=O)Nc1nc2ccc(C(=O)c3cccs3)cc2[nH]1` [NCZ, nocodazole], the concentration for half-maximal inhibition (IC50) in data set [4] was 1000 nM; in [6], 480 nM; in [7], 3200 nM; in data set [8] it was 200 nM. In addition, in [5], the “Appearance of MTs in TEM images” value was “only small MT fragments or tubulin dimers are apparent”.

With `CC(=O)O[C@H]1C(=O)[C@@]2(C)[C@H]([C@H](OC(=O)c3ccccc3)[C@]3(O)C[C@H](OC(=O)[C@H](O)[C@@H](NC(=O)c4ccccc4)c4ccccc4)C(C)=C1C3(C)C)[C@]1(OC(C)=O)CO[C@@H]1C[C@@H]2O` [PTX, paclitaxel], the “association constant with MTs” value in [2] was 1.07e+07 M⁻¹. Also, in [9], the “Amount of free tubulin in the cytosol (western blot)” value was “substantially reduce the amount of free tubulin”. In addition, the concentration for half-maximal inhibition (IC50) in data set [10] is 100 nM; in data set [6], 200 nM; in data set [13] it was 860 nM; in [8], 0.82 nM. Further, the “population in G2/M” value in [11] (after 9 h) is about 50%; in data set [11] (by 27 h), about 100%. The “time point at which changes in MT comet motion were apparent” value in [12] was found to be 30 min.

With `[106Ru+2].[O-][Cl+3]([O-])([O-])[O-].[O-][Cl+3]([O-])([O-])[O-].c1cnc2c(c1)ccc1cccnc12.c1cnc2c(c1)ccc1cccnc12.c1cnc2c(c1)ccc1cccnc12` [[^106Ru(phen)3][ClO4]2], the “time to excretion of the intact cation in the urine” value in data set [14] and in [15] was “about 12 h” in each case.

For the compound [(DIP)2Ru(tatpp)Ru(DIP)2]^2+, the “selectivity index (SI = IC50 MCF10/IC50 MCF7)” value in data set [16] is recorded as 11.

For [(DIP)2Ru(tatpp)]^2+, the “selectivity index (SI = IC50 MCF10/IC50 MCF7)” value in data set [16] is 71.
